From US5681708A, “Method for screening compositions” (SmithKline Beecham Corporation, priority 1994, dated 1997)

Molecular target: T1, CD4/Lck protein complex (Homo sapiens, UniProt P01730+P06239)
T1 construct: Detergent extracts of CEM cells were prepared by pelleting cells; endogenous in cells; host or cells: CEM (ATCC CCL 119), acute lymphoblastic CD4-positive human T-cell line; diluted detergent (NP-40) extract
Assay: CD4/Lck Dissociation Assay (ELISA-based, CEM cell extracts)
Type: biochemical
Conditions: CEM cell detergent extract, 30 min at 30° C., OKT4 capture, C-Lck detection; read-out: IC50, concentration of test compound which dissociated 50% of the target CD4/Lck protein complex relative to controls
Procedure: Acute lymphoblastic CD4-positive human T-cells, from the T-cell line CEM (ATCC CCL 119), were grown in suspension in RPMI-1640 medium supplemented with 10% heat-inactivated fetal calf serum at 37° C. to a cell density of 0.8-1.2×10^6 cells/mi. Detergent extracts of CEM cells were prepared by pelleting cells, washing with Dulbecco's phosphate buffered saline without Ca and Mg (D-PBS) at 4° C. and resuspending the cell pellet in sufficient freshly prepared extraction buffer (50 mM Tris, pH 8.0, 150 mM NaCl, 2 mM EDTA, 50 mM NaF, 3% NONIDET™ P-40, 0.1 mMNa vanadate, 0.1 mM PMSF, 10 ug/ml leupeptin, 10 ug/ml aprotinin, 10 ug/ml TLCK) to yield 1.0×10^8 cells in a volume of 1 ml. The cell pellet was resuspended gently on ice until a homogeneous suspension was obtained and kept on ice for at least 30 min with occasional vortexing. The suspension was then centrifuged at 29,000 xg for 30 min at 4° C.; the clear cell extract supernatant was transferred to a clean tube and placed on ice.
Cell extracts were diluted 16-fold with ice-cold PBS (0.1M phosphate, 0.15M NaCl, ph 7.4) containing 0.5% (w/v) BSA and 0.05% (v/v) TWEEN™ 20 (PBT) to yield 6.25×10^6 cell equivalents/mi. Candidate dissociative agents were diluted to 1 mg/ml with ddH2 O and 10 ul were added to Corning plate wells. A 90 ul volume of diluted cell extract (5.6×10^5 cell equivalents) were added to the Corning plate wells containing an organic solvent to provide a final candidate agent concentration of 0.1 mg/ml. Exemplary organic solvents are DMSO and ethanol. The resulting final concentration of organic solvent was 1%. The plates were incubated for 30 min at 30° C. in a water bath and then transferred to ice. Alternatively, diluted cell extracts can be incubated with candidate agents for 2 to 3 hours at room temperature (22°-25° C.).
ELISA assay plate wells were prepared by coating MaxiSorp™ (Nunc, round-bottom wells) or TITERTEK™ plate wells overnight at 4° C. with 100 ul of 2.5 ug/ml OKT4 CD4 mAb in 0.1M NaHCO3, pH 9.2. TITERTEK™ and Corning ELISA plates were also successfully used. Other CD4 monoclonal antibodies which bind to portions of the V1 domain in the extracellular portion of the CD4 molecule may also be used. All CD4 monoclonal antibodies were either purchased from Ortho or purified from specific hybridomas available from the ATCC. OKT4 hybridoma is available under ATCC CRL 8002.
When ready for use, the coating solution was removed and the wells rinsed 3× with PBS. A blocking step was performed by adding 0.3 ml PBT per well and incubating at least 30 min at 37° C. All PBT was removed and 50 ul of diluted cell extracts were added to the test wells. 50 ul of extraction buffer/PBT (1:15, v/v) were added to the assay blank wells. The plates were sealed and incubated 1 hour at 4° C. […]

T1 sequence (P06239 2-509 limits assumed, other chains not shown): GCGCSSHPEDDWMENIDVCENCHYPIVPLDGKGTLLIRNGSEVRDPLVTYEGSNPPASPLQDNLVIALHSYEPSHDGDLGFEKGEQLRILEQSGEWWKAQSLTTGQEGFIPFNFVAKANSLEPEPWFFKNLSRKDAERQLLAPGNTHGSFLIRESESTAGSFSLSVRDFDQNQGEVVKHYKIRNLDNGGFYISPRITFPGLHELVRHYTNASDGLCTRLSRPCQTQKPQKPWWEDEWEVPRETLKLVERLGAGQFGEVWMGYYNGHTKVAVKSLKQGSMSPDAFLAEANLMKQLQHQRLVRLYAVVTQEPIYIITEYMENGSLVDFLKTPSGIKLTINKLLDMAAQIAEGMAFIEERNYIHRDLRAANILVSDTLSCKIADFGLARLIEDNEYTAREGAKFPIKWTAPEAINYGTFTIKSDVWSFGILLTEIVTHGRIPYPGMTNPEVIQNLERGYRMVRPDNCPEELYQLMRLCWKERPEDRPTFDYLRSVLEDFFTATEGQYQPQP

“5,7-dihydroxy-4'-methoxyisoflavone [Genistein]” showed an IC50 greater than 200 µM.

With `CCCCCCCCCCCC1N=C(N)N2CCCC2=C1C(=O)OCCCCNC(=N)N` (stereo not shown) [Crambine A] the IC50 was less than 100 µM.

`N#C/C(=C\c1ccc(O)c(O)c1)C(N)=O` [LC-A46, trans-2-cyano, 3-(3,4-dihydroxyphenyl)acrylamide] gave an IC50 of 300 µM.

`N#CC(C#N)=Cc1ccc(O)c(O)c1` [LC-A23, 2-cyano, 3-(3,4-dihydroxyphenyl)acrylonitrile] gave an IC50 greater than 500 µM.
